Reference: US20230277669A1, “USES OF UROLITHINS” (Amazentis SA, priority 2022, published 2023)

Experiments:
[1] = test system: Th1/Th17 cell infiltration; settings: in vivo; cited from earlier work
CD3^+ T cells = experiment: qPCR analysis of in vitro activated CD3+ cells; assay type: cell-based
Procedure: (§1) (FIG. 4A) Scheme of CD3+ T-cell activation and analysis for various timepoints in order to investigate mitophagy induction in vitro. (FIG. 4B) Analysis of mitochondrial membrane potential within CD8+ T cells, with TMRM^lo representing cells with low mitochondrial membrane potential. Analysis was performed six hours after stimulation with aCD/aCD28 stimulation beads at the presence of the indicated treatments. N=4 per group, *p < 0.05 by Mann Whitney U test. One of two independent experiments are shown. (FIG. 4C) Representative flow histogram and quantification of lysosome formation in CD8+ cells six hours after in vitro stimulation. MFI shown relative to DMSO controls, n=4. Data are normalised mean ± SD, statistical analysis by two-sided t-test. One out of two independent experiments are shown. (FIG. 4D) Mitotracker Red staining of in vitro stimulated CD8+ cells after 24 hours of Urolithin A (UA25 n=6; UA50 n=6) or vehicle control treatment (DMSO: n=4). […] (FIG. 4H) CD8+ cells from Pink1^-/- mice display deficient mitophagy upon UA treatment in vitro: Lysosome formation in CD8+ of Pink1^-/- mice as assessed by Lysotracker staining 6h post stimulation at the presence of UA or DMSO (n=4). […] Quantification of TCF1^hi cells among CD8. (FIG. 4N) Quantification of PD1^hi cells among CD8. (FIG. 4O) Quantification of and Tim3^hi cells among CD8. […]

[2] = test system: CEA-expressing human CRC organoids; experiment: Killing of CEA-expressing CRC organoids by CEA-specific CAR T cells; assay type: cell-based; settings: 72 h co-culture
T cells = experiment: RNA sequencing of T cells exposed to DMSO or UA; assay type: cell-based; settings: 48 hours
Procedure: (FIG. 5B) RNAseq expression heatmap of selected genes: Genes associated with immune checkpoints, effector molecules and genes encoding for leukocyte migration. (FIG. 5C) Expression of genes associated with T cell memory vs effector fate decisions. Data underwent z-score normalization for display (n=3 per group). […] T cells were stimulated for 48 h in vitro at the presence of the indicated treatments. Data are mean ± SD (n=4/4/3), statistical analysis was performed by two-sided t-test (p***<0.01; p****0.0001). (FIG. 5E) Quantification of TSCM formation within CD8+ cells after 48 h of in vitro stimulation under various treatment conditions, including TCF1 inhibition by ICG001 (DMSO, UA, TCF1i n=4; TCFi+UA n=3). Data are mean ± SD, statistical analysis was performed by two-sided t-test (*p < 0.05; n.s. not significant). One of two independent experiments are shown. (FIG. 5F) Western blot analysis of β-Catenin phosphorylation status in CD3+ cells stimulated via plate-bound aCD3/aCD28 antibodies for 6h. N=3 per group. (FIG. 5G) Cytosolic fractionation of CD3+ cells stimulated for six hours in the presence of Urolithin or DMSO control (c= cytosolic, m = mitochondrial fraction). Experiment was repeated twice.
(FIG. 8A) Ingenuity pathway upstream regulator analysis of UA treated T cells. Assessed from RNAseq data. Plausible upregulation is depicted by z score, significance is shown on the overlying dot spot. Genes with a log2 fold change of 1 and p<0.05 were initially considered.
To explore the downstream events linking mitophagy to TSCM formation, we performed RNA sequencing to globally assess differential gene expression in T cells exposed for 48 hours to either DMSO or UA in vitro. […] Indeed, when we applied ICG001 to pharmacologically block TCF-1, UA-induced TSCM formation in vitro was abrogated (FIGS. 5D-E).

CD3+ cells = experiment: Western blot, fractionation and immunofluorescence of stimulated CD3+ cells; assay type: cell-based
Procedure: as §1, with “n=4). A representative flow histogram depicting identification of Mitotracker^hi cells is shown. Data are mean ± SD, statistical analysis was performed by two-sided t-test (*p < 0.05; ***p <0.001; ****p < 0.0001). Experiment was repeated twice. (FIG. 4E) Subset-specific identification of Mitotracker red accumulation after 24 hours of in vitro stimulation either with vehicle control (DMSO) or 50 µM Urolithin A (n=5). Subsets were identified was depicted in the FIGS. 7-9. Data are mean ± SD, statistical analysis by two-sided t-test (* p<0.05, *** p<0.001 and **** p<0.0001). (FIG. 4F) qPCR analysis of various autophagy/mitophagy associated genes of in vitro activated CD3+ cells, 24 h after activation (n=3). Data are ± SEM, statistical analysis was performed by two-sided t-test (*p < 0.05,**p < 0.01). Overall p value is given for the comparison over the entire panel of genes after two-way ANOVA test. (FIG. 4G) Western blot of Parkin protein expression in UA or DMSO (n=3) treated cells after 24 h. Cells were stimulated at the presence of plate-bound aCD3/aCD28 antibodies.” for “n=4).”, “(n=4). Data are mean ± SD, one out of two independent experiments are shown. (FIG. 4I) CD8+ cells from Pink1^-/- mice display deficient mitophagy upon UA treatment in vitro: Mitotracker red staining of Pink1^-/- CD8+ stimulated in vitro for 48 h, either in the presence of UA or DMSO (n=4). Percentage of Mitotracker^hi CD8+ cells are shown. Data are mean ± SD and acquired via flow cytometry.” for “(n=4).”

O=c1oc2cc(O)ccc2c2ccc(O)cc12 [Urolithin A]
Th1/Th17 cell infiltration [1]: blocking Th1/Th17 cell infiltration | autophagy genes and Pink1 (qPCR) (CD3^+ T cells; 24 h after activation): significant upregulation | transcription of Wnt target genes (qPCR) (CD3^+ T cells; 24 h after stimulation): increased transcription | killing efficacy of CEA-expressing human CRC organoids [2]: comparable killing efficacy | effector fate associated genes Prdm1 and Id2 (T cells): reduced expression | expression of Cd27, Ccr7 and adhesion genes (T cells): enhancing expression | expression of genes coding for immune checkpoints and effector molecules (T cells): reduced the expression | genes involved in memory formation (Tcf7, Bach2, Bcl6) (T cells): special enrichment | phosphorylation of Stat1 (CD3+ cells; 6 h, compared to vehicle controls): equal phosphorylation of Stat1 | Parkin protein expression (Western blot) (CD3+ cells; 24 h): stabilized Parkin protein expression | b-catenin phosphorylation (CD3+ cells; after 6 hours): marked decrease | Pgam5 localization (sub-cellular fractionation, immunofluorescence) (CD3+ cells; six hours): rapidly released into the cytoplasma
